The source of these data is patent US10006064B2, “Biosynthetic pathways, recombinant cells, and methods” (REGENTS OF THE UNIVERSITY OF MINNESOTA, priority 2012, dated 2018).

≈ marks a conversion by molar mass, not a printed value.

Usually Solubility stands for the dissolved amount per volume that the medium holds.

The labels stand for the following.
B1: ATF2: Alcohol acetyltransferase from S. cerevisiae, expressed in recombinant E. coli BW25113 (protein, listed as Saccharomyces cerevisiae)
chain: MEDIEGYEPHITQELIDRGHARRMGHLENYFAVLSRQKMYSNFTVYAELNKGVNKRQLMLVLKVLLQKYSTLAHTIIPKHYPHHEAYYSSEEYLSKPFPQHDFIKVISHLEFDDLIMNNQPEYREVMEKISEQFKKDDFKVTNRLIELISPVIIPLGNPKRPNWRLICLPGKDTDGFETWKNFVYVTNHCGSDGVSGSNFFKDLALLFCKIEEKGFDYDEEFIEDQVIIDYDRDYTEISKLPKPITDRIDYKPALTSLPKFFLTTFIYEHCNFKTSSESTLTARYSPSSNANASYNYLLHFSTKQVEQIRAQIKKNVHDGCTLTPFIQACFLVALYRLDKLFTKSLLEYGFDVAIPSNARRFLPNDEELRDSYKYGSNVGGSHYAYLISSFDIPEGDNDKFWSLVEYYYDRFLESYDNGDHLIGLGVLQLDFIVENKNIDSLLANSYLHQQRGGAIISNTGLVSQDTTKPYYVRDLIFSQSAGALRFAFGLNVCSTNVNGMNMDMSVVQGTLRDRGEWESFCKLFYQTIGEFASL
B2: ATF1: Alcohol acetyltransferase from S. cerevisiae, expressed in recombinant E. coli BW25113 (protein, listed as Saccharomyces cerevisiae)
chain: MDLWKRLFEANPTKIRDKKIKNGHFISITNTINLSALMNEIDEKNQAPVQQECLKEMIQNGHARRMGSVEDLYVALNRQNLYRNFCTYGELSDYCTRDQLTLALREICLKNPTLLHIVLPTRWPNHENYYRSSEYYSRPHPVHDYISVLQELKLSGVVLNEQPEYSAVMKQILEEFKNSKGSYTAKIFKLTTTLTIPYFGPTGPSWRLICLPEEHTEKWKKFIFVSNHCMSDGRSSIHFFHDLRDELNNIKTPPKKLDYIFKYEEDYQLLRKLPEPIEKVIDFRPPYLFIPKSLLSGFIYNHLRFSSKGVCMRMDDVEKTDDVVTEIINISPTEFQAIKANIKSNIQGKCTITPFLHVCWFVSLHRWGKFFKPLNFEWLTDIFIPADCRSQLPDDDEMRQMYRYGANVGFIDFTPWISEFDMNDNKENFWPLIEHYHEVISEALRNKKHLHGLGFNIQGFVQKYVNIDKVMCDRAIGKRRGGTLLSNVGLFNQLEEPDAKYSICDLAFGQFQGSWHQAFSLGVCSTNVKGMNIVVASTKNVVGSQESLEELCSIYKALLLGP

The first series has as its system E. coli strain BW25113. Briefly: Shake flask fermentation with candidate alcohol acyltransferases, isobutyl acetate production (GC-FID). Type of series: cell-based. Conditions: strains identical except for the AAT; 20 g/L glucose, 30° C., 48 hours; ± standard deviation, three colonies. An excerpt:
(§1) Each was cloned and transformed into E. coli strain BW25113 for analysis.
(§2) Three synthetic operons were constructed for gene expression to produce isobutyl acetate and isoamyl acetate (FIG. 5). All the plasmids were constructed to be under the regulation of PLlacO1 promoter. To produce isobutyl acetate, the first operon included four coding regions on a medium copy plasmid carrying kanamycin resistance marker in a transcriptional order ilvC-ilvD-alsS-AAT, with the ATT position being occupied by the coding region of one of the five exemplary acyltransferases (AAT) being analyzed. (FIG. 5(a)). The second operon included two coding regions on a high copy plasmid with an ampicillin resistance maker in a transcriptional order kivd-yqhD. For the synthesis of isoamyl acetate, the coding regions of leuA, leuB, leuC, and leuD involved in leucine biosynthesis were introduced in the first medium copy plasmid between alsS and AAT, and the same second high copy plasmid was used. (FIG. 5(b)).
(§3) We assessed the effect of each of the five exemplary acyltransferases on the production titers for isobutyl acetate and isoamyl acetate. […]
(§4) Shake flask fermentations were carried out for the recombinant strains. […] The produced medium-chain ester compounds were quantified by GC-FID (gas chromatography-flame ionization detector) analysis. […]
For B1, the “isobutyl acetate production titer” value amounted to 1.69 ± 0.46 g/L.

For B2, the “isobutyl acetate production titer” value was 2.14 ± 0.17 g/L.

Test system in the next series: not given
Test: not given
The following applies: solubility in water / aqueous medium; cited from earlier work.
For the molecule `CCO` [Ethanol], the Solubility entry is recorded as “miscible”.

In the case of `CCOC(C)=O` [Ethyl acetate], the Solubility is 83000 µg/mL.

In the case of `CCOC(=O)C(C)C` [Ethyl isobutyrate], the Solubility is 3200 µg/mL (≈ 27.5 mM).

`CCOC(=O)CC(C)C` [Ethyl isovalerate]: the Solubility was 2000 µg/mL (≈ 15.4 mM).

`CC(C)COC(=O)C(C)C` [isobutyl isobutyrate]: the Solubility was 500 µg/mL (≈ 3.47 mM).

For `CC(C)CC(=O)OC(=O)CC(C)C` [isovaleryl isovalerate], the Solubility result is “insoluble”.

In a further series the test system is E. coli strain BW25113. Briefly: Shake flask fermentation with candidate alcohol acyltransferases, isoamyl acetate production (GC-FID). It counts as cell-based. Conditions: strains identical except for the AAT, with leuABCD; 20 g/L glucose, 30° C., 48 hours.
Text: as §1, §2, §3, §4
For B1, the “isoamyl acetate production titer” value is on record as “highest production titers”.

Consider B2, for which the “isoamyl acetate production titer” value is given as “highest production titers”.
